Laboratory results as given in patent publication US6737383B1, “Herbicidal oxadiazolidines” (priority 1999, dated 2004).

Experiments:
rape = assay: Test B pre/postemergence rape; assay type: in vivo, Brassica napus
Procedure, shortened: (§1)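 Test chemicals in a non-phytotoxic solvent mixture with surfactant were sprayed preemergence onto planted seeds and postemergence onto plants 2 to 18 cm tall (1- to 4-leaf stage). After twelve to sixteen days in a greenhouse, injury was visually rated against untreated controls from 0 (no effect) to 10 (complete control).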

surinam grass = assay: Test B pre/postemergence surinam grass; assay type: in vivo, Brachiaria decumbens
Procedure, shortened: as §1

cocklebur = assay: Test B pre/postemergence cocklebur; assay type: in vivo, Xanthium strumarium
Procedure, shortened: as §1

giant foxtail = assay: Test B pre/postemergence giant foxtail; assay type: in vivo, Setaria faberii
Procedure, shortened: as §1

pigweed = assay: Test B pre/postemergence pigweed; assay type: in vivo, Amaranthus retroflexus
Procedure, shortened: as §1

morningglory = assay: Test B pre/postemergence morningglory; assay type: in vivo, Ipomoea hederacea
Procedure, shortened: as §1

rice = assay: Test B flood test rice; assay type: in vivo, Oryza sativa
Procedure, shortened: (§2)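 Read-out is a visual response score from 0 (no effect) to 10 (complete control), assigned by comparison with untreated controls. Treatment was applied at the 2-leaf stage, and plants stayed in the greenhouse for twelve to sixteen days before scoring.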

velvetleaf = assay: Test B pre/postemergence velvetleaf; assay type: in vivo, Abutilon theophrasti
Procedure, shortened: as §1

smallflower flatsedge = assay: Test B flood test smallflower flatsedge; assay type: in vivo, Cyperus difformis
Procedure, shortened: as §2

soybean = assay: Test B pre/postemergence soybean; assay type: in vivo, Glycine max
Procedure, shortened: as §1

blackgrass = assay: Test B pre/postemergence blackgrass; assay type: in vivo, Alopecurus myosuroides
Procedure, shortened: as §1

bedstraw = assay: Test B pre/postemergence bedstraw; assay type: in vivo, Galium aparine
Procedure, shortened: as §1

corn = assay: Test B pre/postemergence corn; assay type: in vivo, Zea mays
Procedure, shortened: as §1

sugar beet = assay: Test B pre/postemergence sugar beet; assay type: in vivo, Beta vulgaris
Procedure, shortened: as §1

wheat = assay: Test B pre/postemergence wheat; assay type: in vivo, Triticum aestivum
Procedure, shortened: as §1

wild oat = assay: Test B pre/postemergence wild oat; assay type: in vivo, Avena fatua
Procedure, shortened: as §1

[1] = Postemergence, Rate 125 g/ha, scale of 0 to 10 where 0 is no effect and 10 is complete control
[2] = Preemergence, Rate 62 g/ha, scale of 0 to 10 where 0 is no effect and 10 is complete control
[3] = Preemergence, Rate 125 g/ha, 0 is no effect, 10 is complete control
[4] = Preemergence, Rate 250 g/ha, scale 0 to 10, 0 is no effect, 10 is complete control
[5] = Preemergence, Rate 500 g/ha, scale 0 to 10 (0 no effect, 10 complete control)
[6] = Rate 62 g/ha, Postemergence, scale of 0 to 10 where 0 is no effect and 10 is complete control
[7] = Rate 250 g/ha, Postemergence, scale 0 to 10, 0 is no effect, 10 is complete control
[8] = Rate 500 g/ha, Postemergence, scale 0 to 10
[9] = Postemergence (flood test species), Rate 125 g/ha, scale of 0 to 10 where 0 is no effect and 10 is complete control
[10] = Rate 62 g/ha, Postemergence section, flood test species, scale of 0 to 10 where 0 is no effect and 10 is complete control
[11] = Rate 250 g/ha, Postemergence (flood test), scale 0 to 10, 0 is no effect, 10 is complete control
[12] = Rate 500 g/ha, listed under Postemergence (flood test species), scale 0 to 10

## CC(C)Cn1c(=O)on(C(=O)N(c2ccc(F)cc2)C(C)C)c1=O [Compound 169]
rape; [1]
  Rape plant response rating: 0
rape; [2]
  Rape plant response rating: 2
rape; [3]
  Rape plant response rating (0 to 10 scale): 2
rape; [4]
  Rape plant response rating: 6
rape; [5]
  Rape plant response rating: 10
rape; [6]
  Rape plant response rating: 0
rape; [7]
  Plant response rating, Rape: 0
rape; [8]
  Rape plant response rating: 3
Surinam grass; [1]
  B. signalgrass plant response rating: 0
Surinam grass; [2]
  B. signalgrass plant response rating: 7
Surinam grass; [3]
  B. signalgrass plant response rating (0 to 10 scale): 7
Surinam grass; [4]
  B. signalgrass plant response rating: 7
Surinam grass; [5]
  B. signalgrass plant response rating: 7
Surinam grass; [6]
  B. signalgrass plant response rating: 0
Surinam grass; [7]
  Plant response rating, B. signalgrass: 0
Surinam grass; Rate 500 g/ha, Postemergence, scale 0 to 10, 0 no effect, 10 complete control
  B. signalgrass plant response rating: 7
cocklebur; [1]
  Cocklebur plant response rating: 0
cocklebur; [2]
  Cocklebur plant response rating: 0
cocklebur; [3]
  Cocklebur plant response rating (0 to 10 scale): 0
cocklebur; [4]
  Cocklebur plant response rating: 0
cocklebur; [5]
  Cocklebur plant response rating: 0
cocklebur; [6]
  Cocklebur plant response rating: 0
cocklebur; [7]
  Plant response rating, Cocklebur: 0
cocklebur; [8]
  Cocklebur plant response rating: 3
Giant foxtail; [1]
  Giant foxtail plant response rating: 2
Giant foxtail; [2]
  Giant foxtail plant response rating: 10
Giant foxtail; [3]
  Giant foxtail plant response rating (0 to 10 scale): 10
Giant foxtail; [4]
  Giant foxtail plant response rating: 10
Giant foxtail; [5]
  Giant foxtail plant response rating: 10
Giant foxtail; [6]
  Giant foxtail plant response rating: 0
Giant foxtail; [7]
  Plant response rating, Giant foxtail: 6
Giant foxtail; [8]
  Giant foxtail plant response rating: 9
pigweed; [1]
  Redroot pigweed plant response rating: 0
pigweed; [2]
  Redroot pigweed plant response rating: 6
pigweed; [3]
  Redroot pigweed plant response rating (0 to 10 scale): 6
pigweed; [4]
  Redroot pigweed plant response rating: 8
pigweed; [5]
  Redroot pigweed plant response rating: 8
pigweed; [6]
  Redroot pigweed plant response rating: 0
pigweed; [7]
  Plant response rating, Redroot pigweed: 0
pigweed; [8]
  Redroot pigweed plant response rating: 3
morningglory; [1]
  Morningglory plant response rating: 1
morningglory; [2]
  Morningglory plant response rating: 0
morningglory; [3]
  Morningglory plant response rating (0 to 10 scale): 0
morningglory; [4]
  Morningglory plant response rating: 0
morningglory; [5]
  Morningglory plant response rating: 0
morningglory; [6]
  Morningglory plant response rating: 1
morningglory; [7]
  Plant response rating, Morningglory: 5
morningglory; [8]
  Morningglory plant response rating: 7
rice; [9]
  Rice plant response rating: 0
rice; [10]
  Rice plant response rating: 0
rice; [11]
  Plant response rating, Rice: 0
rice; [12]
  Rice plant response rating: 0
velvetleaf; [2]
  Velvetleaf plant response rating: 2
velvetleaf; [3]
  Velvetleaf plant response rating (0 to 10 scale): 2
velvetleaf; [4]
  Velvetleaf plant response rating: 6
velvetleaf; [5]
  Velvetleaf plant response rating: 8
velvetleaf; [7]
  Plant response rating, Velvetleaf: 0
velvetleaf; [8]
  Velvetleaf plant response rating: 0
Smallflower flatsedge; [9]
  S. Flatsedge plant response rating: 0
Smallflower flatsedge; [10]
  S. Flatsedge plant response rating: 0
Smallflower flatsedge; [11]
  Plant response rating, S. Flatsedge: 0
Smallflower flatsedge; [12]
  S. Flatsedge plant response rating: 0
soybean; [1]
  Soybean plant response rating: 1
soybean; [2]
  Soybean plant response rating: 0
soybean; [3]
  Soybean plant response rating (0 to 10 scale): 0
soybean; [4]
  Soybean plant response rating: 2
soybean; [5]
  Soybean plant response rating: 5
soybean; [6]
  Soybean plant response rating: 1
soybean; [7]
  Plant response rating, Soybean: 3
soybean; [8]
  Soybean plant response rating: 6
blackgrass; [1]
  Blackgrass plant response rating: 4
blackgrass; [2]
  Blackgrass plant response rating: 3
blackgrass; [3]
  Blackgrass plant response rating (0 to 10 scale): 3
blackgrass; [4]
  Blackgrass plant response rating: 8
blackgrass; [5]
  Blackgrass plant response rating: 10
blackgrass; [6]
  Blackgrass plant response rating: 2
blackgrass; [7]
  Plant response rating, Blackgrass: 5
blackgrass; [8]
  Blackgrass plant response rating: 9
bedstraw; [1]
  Bedstraw plant response rating: 2
bedstraw; [2]
  Bedstraw plant response rating: 0
bedstraw; [3]
  Bedstraw plant response rating (0 to 10 scale): 0
bedstraw; [4]
  Bedstraw plant response rating: 7
bedstraw; [5]
  Bedstraw plant response rating: 10
bedstraw; [6]
  Bedstraw plant response rating: 2
bedstraw; [7]
  Plant response rating, Bedstraw: 7
corn; [1]
  Corn plant response rating: 0
corn; [2]
  Corn plant response rating: 0
corn; [3]
  Corn plant response rating (0 to 10 scale): 0
corn; [4]
  Corn plant response rating: 3
corn; [5]
  Corn plant response rating: 6
corn; [6]
  Corn plant response rating: 0
corn; [7]
  Plant response rating, Corn: 0
corn; [8]
  Corn plant response rating: 0
Sugar beet; [1]
  Sugarbeets plant response rating: 0
Sugar beet; [2]
  Sugarbeets plant response rating: 0
Sugar beet; [3]
  Sugarbeets plant response rating (0 to 10 scale): 0
Sugar beet; [4]
  Sugarbeets plant response rating: 7
Sugar beet; [5]
  Sugarbeets plant response rating: 8
Sugar beet; [6]
  Sugarbeets plant response rating: 0
Sugar beet; [7]
  Plant response rating, Sugarbeets: 0
Sugar beet; [8]
  Sugarbeets plant response rating: 0
wheat; [2]
  Wheat plant response rating: 0
wheat; [3]
  Wheat plant response rating (0 to 10 scale): 0
wheat; [4]
  Wheat plant response rating: 3
wheat; [5]
  Wheat plant response rating: 4
wheat; [7]
  Plant response rating, Wheat: 0
wheat; [8]
  Wheat plant response rating: 2
Wild oat; [2]
  Wild oats plant response rating: 8
Wild oat; [3]
  Wild oats plant response rating (0 to 10 scale): 8
Wild oat; [4]
  Wild oats plant response rating: 8
Wild oat; [5]
  Wild oats plant response rating: 10
Wild oat; [7]
  Plant response rating, Wild oats: 0
Wild oat; [8]
  Wild oats plant response rating: 2
